According to patent publication US4401660A, “Ester derivatives of 5-O-mycaminosyl tylonolide and method of using same” (Eli Lilly and Company, priority 1981, dated 1983):

Legend:
Format in all cases: cell-based
Design in all cases: unit not given here
Mycoplasma hyorhinis = assay: MIC, broth-dilution microtiter test (Table III)
Protocol: (§1) The MIC's in Table II were determined by standard agar-dilution assays. The MIC's in Table III were obtained using a conventional broth-dilution microtiter test.

[1] = test system: Pasteurella multocida 60A; assay: MIC, broth-dilution microtiter test (Table III); conditions: avian isolate
Protocol: as §1

[2] = test system: Pasteurella haemolytica 23C; assay: MIC, broth-dilution microtiter test (Table III)
Protocol: as §1

[3] = test system: Pasteurella haemolytica 41D; assay: MIC, broth-dilution microtiter test (Table III)
Protocol: as §1

[4] = test system: Pasteurella multocida 40G; assay: MIC, broth-dilution microtiter test (Table III)
Protocol: as §1

[5] = test system: Pasteurella multocida 17E; assay: MIC, broth-dilution microtiter test (Table III); conditions: bovine isolate
Protocol: as §1

[6] = test system: Pasteurella multocida 68C; assay: MIC, broth-dilution microtiter test (Table III)
Protocol: as §1

Mycoplasma synoviae = assay: MIC, broth-dilution microtiter test (Table III)
Protocol: as §1

Staphylococcus aureus = assay: MIC, broth-dilution microtiter test (Table III)
Protocol: as §1

[7] = test system: Pasteurella haemolytica 22C; assay: MIC, broth-dilution microtiter test (Table III)
Protocol: as §1

Mycoplasma gallisepticum = assay: MIC, broth-dilution microtiter test (Table III)
Protocol: as §1

[8] = test system: Pasteurella multocida 22A; assay: MIC, broth-dilution microtiter test (Table III)
Protocol: as §1

Streptococcus sp. 80 = assay: MIC, broth-dilution microtiter test (Table III)
Protocol: as §1

[9] = test system: Streptococcus Group D 9960; assay: MIC, standard agar-dilution assay (Table II)
Protocol: as §1

[10] = test system: Haemophilus influenzae R252; assay: MIC, standard agar-dilution assay (Table II); conditions: Haemophilus influenzae R252, ampicillin-resistant strain
Protocol: as §1

[11] = test system: Staphylococcus aureus X1.1; assay: MIC, standard agar-dilution assay (Table II)
Protocol: as §1

[12] = test system: Staphylococcus aureus V41; assay: MIC, standard agar-dilution assay (Table II); conditions: Staphylococcus aureus V41, penicillin-resistant strain
Protocol: as §1

[13] = test system: Streptococcus pneumoniae Park I; assay: MIC, standard agar-dilution assay (Table II)
Protocol: as §1

[14] = test system: Streptococcus Group D X66; assay: MIC, standard agar-dilution assay (Table II)
Protocol: as §1

[15] = test system: Staphylococcus aureus S13E; assay: MIC, standard agar-dilution assay (Table II)
Protocol: as §1

[16] = test system: Staphylococcus epidermidis EPI1; assay: MIC, standard agar-dilution assay (Table II)
Protocol: as §1

[17] = test system: Streptococcus pyogenes C203; assay: MIC, standard agar-dilution assay (Table II)
Protocol: as §1

[18] = test system: Staphylococcus epidermidis EPI2; assay: MIC, standard agar-dilution assay (Table II)
Protocol: as §1

[19] = test system: Haemophilus influenzae Holt; assay: MIC, standard agar-dilution assay (Table II); conditions: ampicillin-sensitive strain
Protocol: as §1

[20] = test system: Staphylococcus aureus X400; assay: MIC, standard agar-dilution assay (Table II); conditions: Staphylococcus aureus X400, methicillin-resistant strain
Protocol: as §1

Structure (SMILES)	minimal inhibitory concentration (MIC) (Mycoplasma hyorhinis)	minimal inhibitory concentration (MIC) [1]	minimal inhibitory concentration (MIC) [2]	minimal inhibitory concentration (MIC) [3]	minimal inhibitory concentration (MIC) [4]	minimal inhibitory concentration (MIC) [5]	minimal inhibitory concentration (MIC) [6]	minimal inhibitory concentration (MIC) (Mycoplasma synoviae)	minimal inhibitory concentration (MIC) (Staphylococcus aureus)	minimal inhibitory concentration (MIC) [7]	minimal inhibitory concentration (MIC) (Mycoplasma gallisepticum)	minimal inhibitory concentration (MIC) [8]	minimal inhibitory concentration (MIC) (Streptococcus sp. 80)	minimal inhibitory concentration (MIC) [9]	minimal inhibitory concentration (MIC) [10]	minimal inhibitory concentration (MIC) [11]	minimal inhibitory concentration (MIC) [12]	minimal inhibitory concentration (MIC) [13]	minimal inhibitory concentration (MIC) [14]	minimal inhibitory concentration (MIC) [15]	other results
CCC1OC(=O)CC(O)C(C)C(OC2OC(C)C(O)C(N(C)C)C2OC(C)=O)C(CC=O)CC(C)C(=O)C=CC(C)=CC1COC(=O)C12CC3CC(CC(C3)C1)C2 (centres unmarked) [Compound 69]	3.12	12.5	25	25	12.5	12.5	12.5	1.56	6.25	25	0.78	12.5	1.56	2	16	1	1	0.5	2	1	minimal inhibitory concentration (MIC) [16]: 1; minimal inhibitory concentration (MIC) [17]: 1; minimal inhibitory concentration (MIC) [18]: 1; minimal inhibitory concentration (MIC) [19]: 8; minimal inhibitory concentration (MIC) [20]: 1
CCC1OC(=O)CC(O)C(C)C(OC2OC(C)C(O)C(N(C)C)C2OC(C)=O)C(CC=O)CC(C)C(=O)C=CC(C)=CC1COC(=O)Cc1cc(OC)ccc1OC (centres unmarked) [Compound 62]	0.78	12.5	6.25	3.12	3.12	3.12	6.25	< 0.05	0.78	6.25	< 0.05	3.12	0.195	0.125	2	0.25	0.25	0.03	0.125	0.125	minimal inhibitory concentration (MIC) [16]: 0.125; minimal inhibitory concentration (MIC) [17]: 0.06; minimal inhibitory concentration (MIC) [18]: 0.25; minimal inhibitory concentration (MIC) [19]: 1; minimal inhibitory concentration (MIC) [20]: 0.25
